{
  "source": "paper PMC8910920",
  "about": "(International Journal of Molecular Sciences, 2022)",
  "key": {"[1]": {"system": "CCI rats, cold hypersensitivity", "assay": "CCI model of neuropathic pain, cold sensitivity (acetone test)", "format": "in vivo, rat", "conditions": "for cold hypersensitivity in CCI rats: 30 min after injection", "protocol": "The CCI model of neuropathic pain allowed the evaluation of the effect RGM8-51 on cold, heat and mechanical sensitivity, as assayed by the acetone test, the Hargreaves test, and the automatized von Frey test, respectively. RGM8-51 was applied either locally (i.pl.; 10 µg) in the affected paw or systemically (intraperitoneally, i.p., 10 and 30 mg/kg) and the effect evaluated before (Baseline) and after CCI surgery. The nocifensive response after administration of RGM8-51 was compared with that of vehicle, while non-operated animals and the uninjured (contralateral) hind paw in CCI animals were used as controls.\nAdult male Sprague-Dawley rats (weighing 200–220 g/6–8 weeks old) were used in these experiments. All experimental procedures were conducted according to the animal welfare guidelines of the European Community (European Directive 2010/63/UE) to minimize animal suffering and were approved by Universidad Complutense de Madrid and Comunidad de Madrid ethical committees on animal experimentation (PROEX 207.8/21). […]\nFor behavioral testing, rats were placed in individual methacrylate boxes with a wire mesh floor, and after a period of 15 min acclimatization, the cold, heat and mechanical sensitivity of the ipsilateral and contralateral paws was determined. Cold sensitivity was assessed with the acetone test. In total, 100 µL acetone were locally applied to the plantar surface of the hind paw and the duration of the subsequent nocifensive response (licking, brushing, and flinching of the paw) was determined during 60 s. Acetone application and assessment were repeated 2 times with a 5 min interval and the sum of the two values was recorded. Heat sensitivity was determined with the Hargreaves test, which uses infrared light as a heat source, with a Hargreaves apparatus (Serie 8, Model 336, IITC Life Science, Woodland Hills, CA USA). The light beam was directed to the plantar surface of the hind paw and the time from the beginning of irradiation to the appearance of first paw withdrawal movement was measured (paw withdrawal latency). […]"}, "[2]": {"assay": "Aqueous solubility in simulated gastric fluid", "format": "physicochemical", "conditions": "simulated gastric conditions (pH < 5.5)", "protocol": "These studies were subcontracted to Eurofins-CEREP or Eurofins-PANLABS. Briefly, agonists and antagonist assays were performed in cell cultures overexpressing the corresponding channel (CHO: TRPV1 and TRPA1; HEK293: TRPV3 and ASIC3). In vitro pharmacology, cellular channel functional assays: the compound was prepared in assay buffer to the final concentration, 10 μM. The compound wells, reference agonist and background vehicle controls were prepared in DMSO at 0.3%. The reference agonist for each Ion Channel assayed was prepared in a similar manner to serve as the assay control. […] The agonist assay was conducted on fluorimeter instruments where the test compound, vehicle controls, and reference agonist were added to the assay plate after a fluorescence baseline was established. […] For the antagonist assay, the compound was pre-incubated for five minutes at room temperature, and then challenged with the EC80 concentration of the reference agonist after establishment of a fluorescence baseline. […] Binding assay results are expressed as a percent of control specific binding. […] Aqueous solubility (μM) was determined by comparing the peak area of the principal peak in a calibration standard (200 μM) containing organic solvent (methanol/water, 60/40, v/v) with the peak area of the corresponding peak in a buffer sample. […] The amount of compound in organic phase was calculated by subtraction. […]"}},
  "data": [
    {"compound": "C[C@@H]1C(=O)N(C[C@H](Cc2ccccc2)N(Cc2ccccc2)Cc2ccccc2)[C@]1(Cc1ccccc1)C(=O)OC(C)(C)C", "note": "[RGM8-51, 4(S)-Benzyl-3S-methyl-4-(tert-butoxy)carbonyl-1-[(2′S-dibenzylamino-3′-phenyl)prop-1′-yl]-2-oxoazetidine]", "values": [
      {"measurement": "cold hypersensitivity in CCI rats", "setting": "[1]; i.p. 10 and 30 mg/kg", "result": "inhibited it dose-dependently"},
      {"measurement": "cold hypersensitivity in CCI rats", "setting": "[1]; i.pl. 10 µg", "result": "reduced cold hypersensitivity"},
      {"measurement": "response to cold in non-operated animals (baseline) or contralateral uninjured paw", "setting": "[1]; i.pl. or i.p.", "result": "no effect was observed"},
      {"measurement": "solubility", "setting": "[2]", "result": 198, "unit": "µM"}
    ]}
  ]
}
